Laboratory results from patent US8575170B2, “Flurbiprofen analogs and methods of use in treating cancer” (The Regents of the Unversity of Colorado, a body corporate, priority 2010, dated 2013).
Where two headings read alike, the source gives them in different places.

Legend:
Assay type in all cases: cell-based
CaLu3 = test: MTT cell viability, CaLu3; details: Homo sapiens, Calu-3, 96 h; Adenocarcinoma lung cell line CaLu3; 4 days incubation
Method: (§1) The ability of the flurbiprofen analog compounds of the invention to inhibit cancer cell growth and survival (viability) in a variety of cancer lines was examined in a standard MTT assay for cell viability, as detailed in Example 2.
(§2) The studies reported in Tables 1-3 above were carried out by incubating the cells in the test compound for four days, under standard cell-culture conditions, and measuring cell survival on day 5 (see Example 2).
(§3) Cell growth and survival following treatment with N—[(S)-2-Fluoro-α-methyl-4-biphenylacetyl]-[L-(4-phenylphenyl)alanine]-N-(2,2,6,6-tetramethyl-4-piperidinyl)amide (GCBH-110=B1031; (S)-Fmba-L-Bip-Atmp) were measured by a rapid colorimetric assay based on the tetrazolium salt MTT (3-(4,5-dimethylthiazol-2-yl)-2,5-diphenyl tetrazolium bromide) (Mosmann, J. Immunol. Methods 65: 55-63, 1983, with minor modifications).
(§4) Briefly, approximately 1,000-5,000 cancer cells from 15 different cancer cells lines were plated in 100 μL of growth medium in 96-well flat-bottomed microtiter plates. Cells were incubated overnight to allow recovery. Compounds to be tested were added to the cells in triplicate in a range of concentrations and the cells were incubated at 37° C., 5% CO2, with 100% humidity. Control cells were treated in the same way without antagonists. […] Absorbance was immediately determined using a scanning multiwell plate reader.

H3225 = test: MTT cell viability, H3225; details: 96 h; Adenocarcinoma lung cell line H3225; 4 days incubation
Method: as §1, §2, §3, §4

CaLu6 = test: MTT cell viability, CaLu6; details: Homo sapiens, Calu-6, 96 h; Adenocarcinoma lung cell line CaLu6; 4 days incubation
Method: as §1, §2, §3, §4

H1435a = test: MTT cell viability, H1435a; details: 96 h; Adenocarcinoma lung cell line H1435a; 4 days incubation
Method: as §1, §2, §3, §4

H3225a = test: MTT cell viability, H3225a; details: 96 h; Adenocarcinoma lung cell line H3225a; 4 days incubation
Method: as §1, §2, §3, §4

H661 = test: MTT cell viability, H661; details: Homo sapiens, NCI-H661, 96 h; Large Cell lung cell line H661; 4 days incubation
Method: as §1, §2, §3, §4

H865 = test: MTT cell viability, H865; details: 96 h; SCLC lung cell line H865; 4 days incubation
Method: as §1, §2, §3, §4

SHP77 = test: MTT cell viability, SHP77; details: SCLC lung cell line SHP77, 4 days incubation
Method: as §1, §2, §3, §4

UMSCC22A = test: MTT cell viability, UMSCC22A; details: Head and neck cancer cell line UMSCC22A
Method: as §1
A similar study was conducted on 14 […] cancer cell lines, identified in Table 2.
as §3
Briefly, approximately 1,000-5,000 cancer cells from 15 different cancer cells lines were plated in 100 μL of growth medium in 96-well flat-bottomed microtiter plates. Cells were incubated overnight to allow recovery. Compounds to be tested were added to the cells in triplicate in a range of concentrations and the cells were incubated at 37° C., 5% CO2, with 100% humidity. Control cells were treated in the same way without antagonists. […] Plates were incubated for 4 days, allowing sufficient time for cell replication and compound-induced cell death to occur. […] Absorbance was immediately determined using a scanning multiwell plate reader. […]

Panc-504 = test: MTT cell viability, Panc-504; details: Pancreatic cancer cell, 96 h; Pancreatic cancer cells Panc-504; 4 days incubation
From the text: as §1
(§5) Similar results were obtained for the effect of the B1031 compound on the 14 pancreatic tumor cells lines shown in Table 3 below, where the dose dependent effect of the compound on survival of the pancreatic cancer cell lines is shown in FIG. 5.
as §2, §3
(§6) Briefly, approximately 1,000-5,000 cancer cells from 15 different cancer cells lines were plated in 100 μL of growth medium in 96-well flat-bottomed microtiter plates. Cells were incubated overnight to allow recovery. […] Absorbance was immediately determined using a scanning multiwell plate reader.

L36 = test: MTT cell viability, L36; details: Pancreatic cancer cell, 96 h; Pancreatic cancer cells L36; 4 days incubation
From the text: as §1, §5, §2, §3, §6

L33 = test: MTT cell viability, L33; details: Pancreatic cancer cell, 96 h; Pancreatic cancer cells L33; 4 days incubation
From the text: as §1, §5, §2, §3, §6

MiaPaCa = test: MTT cell viability, MiaPaCa; details: Homo sapiens, MIA PaCa-2, 96 h; Pancreatic cancer cells MiaPaCa; 4 days incubation
From the text: as §1, §5, §2, §3, §6

Panc-813 = test: MTT cell viability, Panc-813; details: Pancreatic cancer cell, 96 h; Pancreatic cancer cells Panc-813; 4 days incubation
From the text: as §1, §5, §2, §3, §6

[1] = tested on: pancreatic cancer cell lines; test: MTT cell viability, panel of pancreatic cancer cell lines
From the text: as §1, §5, §3
as §4, with “humidity.” for “humidity. Control cells were treated in the same way without antagonists.”

[2] = tested on: 15 different cancer cells lines; test: MTT cell viability, 15 different cancer cell lines (FIG. 1); details: 96 h, several cancer cell lines, 4 days, read-out: concentrations causing 50% cell death
Method: as §3
Briefly, approximately 1,000-5,000 cancer cells from 15 different cancer cells lines were plated in 100 μL of growth medium in 96-well flat-bottomed microtiter plates. Cells were incubated overnight to allow recovery. Compounds to be tested were added to the cells in triplicate in a range of concentrations and the cells were incubated at 37° C., 5% CO2, with 100% humidity. Control cells were treated in the same way without antagonists. […] Plates were incubated for 4 days, allowing sufficient time for cell replication and compound-induced cell death to occur. On day 5, 25 μL of a 2 mg/mL solution of MTT (Sigma) dissolved in RMPI-1640 was added to each well. The plate was incubated for 4 h at 37° C. The supernatant liquid was removed and the blue formazan complex was dissolved by adding 100 μL of 0.02 N HCl in 75% isopropanol to all wells. Absorbance was immediately determined using a scanning multiwell plate reader.

[3] = tested on: BTIC EF12 brain tumor initiating stem cells; test: Inhibition of BTIC EF12 brain tumor initiating stem cells; details: at 10 μM, FIG. 6B
Method: FIGS. 6A and 6B show the loss in cell viability in HT-29 colon cancer cells, in response to increasing concentrations of GH 502 (GCBH 118) (FIG. 6A), and the effect of various treatments, including increasing concentration of GH501 (GCBH 110) on U251 malignant glioma cells and BTIC EF12 brain tumor initiating stem cells (FIG. 6B).
The study shown in FIG. 6A examined the effect of GCBH-118 (GH502) on an HT-29 colon cancer cell, showing an IC50 value of about 1 μM. […] The graph indicates an IC50 value for the B1031 compound against the U251 brain cancer cell line of between 2 and 10 μM.

H2122 cells = test: Cell cycle phase distribution in H2122 cells; details: six concentrations, 24, 48 and 72 hours, FIG. 10
Method: FIG. 10 is a plot showing the percentages of H122 cells G1, S, and G2 cycle at […], and 72 hours, as a function of B1031 concentration in the cell medium.
FIG. 10 provides an explanation of the time-dependent IC50 values observed in FIG. 7, and insight into the mechanism by which the compounds of the invention exert their anti-cancer effect. In the study shown in FIG. 10, H2122 cells were cultured in the presence of one of the six concentrations of the B1031 compound, as indicated in the figure. At time periods 24, 48, and 72 hours after incubation with the compound, cells from each of the six cultures (having increasing concentrations of the compound), were examined for percent cells in G1, S, or G2 cell phase.

IC50 (CaLu3): 1300 nM | IC50 (H3225): 1100 nM | IC50 (CaLu6): 340 nM | IC50 (H1435a): 110 nM | IC50 (H3225a): 450 nM | IC50 (H661): 350 nM | IC50 (H865): 360 nM | IC50 (Panc-504): 160 nM | IC50 (MiaPaCa): 740 nM | IC50 (Panc-813): 3100 nM | IC50 ([1]; majority of the pancreatic cell lines, read-out: IC50, majority of the cell lines): ≤ 700 nM | IC50 ([1]; span over 14 pancreatic tumor cell lines, Table 3, FIG. 5, read-out: IC50 values): 160 to 3100 nM
Compound: C[C@H](C(=O)N[C@@H](Cc1ccc(-c2ccccc2)cc1)C(=O)NC1CC(C)(C)NC(C)(C)C1)c1ccc(-c2ccccc2)c(F)c1 [GCBH-110, N—[(S)-2-Fluoro-α-methyl-4-biphenylacetyl]-[L-(4-phenylphenyl)alanine]-N-(2,2,6,6-tetramethyl-4-piperidinyl)amide]
IC50 (SHP77; Homo sapiens, SHP77, 96 h): 500 nM | IC50 (SHP77; listed as B1031): 530 nM | IC50 (UMSCC22A): 430 nM | IC50 (L36): 600 nM | IC50 (L33): 700 nM | IC50 [2]: 100 to 1000 nM | compound inhibition of the BTIC EF12 cells [3]: inhibition | percent cells in G1, S, or G2 cell phase (H2122 cells): marked shift of the cell populations away from the S and G2 phases to the G1 phase
